How the values were obtained:
ovine COX-2 = molecular target: T1, ovine COX-2 (Ovis aries, UniProt P79208); assay: In vitro COX-2 inhibition, enzyme immuno assay (EIA) kit; assay type: biochemical; conditions: for IC50: ovine COX-2, EIA, duplicate determinations; for Ration (COX ½): ratio of COX-1 IC50 to COX-2 IC50
T1 construct: purchased Cayman Chemical 560101
T1 sequence (P79208 17-603): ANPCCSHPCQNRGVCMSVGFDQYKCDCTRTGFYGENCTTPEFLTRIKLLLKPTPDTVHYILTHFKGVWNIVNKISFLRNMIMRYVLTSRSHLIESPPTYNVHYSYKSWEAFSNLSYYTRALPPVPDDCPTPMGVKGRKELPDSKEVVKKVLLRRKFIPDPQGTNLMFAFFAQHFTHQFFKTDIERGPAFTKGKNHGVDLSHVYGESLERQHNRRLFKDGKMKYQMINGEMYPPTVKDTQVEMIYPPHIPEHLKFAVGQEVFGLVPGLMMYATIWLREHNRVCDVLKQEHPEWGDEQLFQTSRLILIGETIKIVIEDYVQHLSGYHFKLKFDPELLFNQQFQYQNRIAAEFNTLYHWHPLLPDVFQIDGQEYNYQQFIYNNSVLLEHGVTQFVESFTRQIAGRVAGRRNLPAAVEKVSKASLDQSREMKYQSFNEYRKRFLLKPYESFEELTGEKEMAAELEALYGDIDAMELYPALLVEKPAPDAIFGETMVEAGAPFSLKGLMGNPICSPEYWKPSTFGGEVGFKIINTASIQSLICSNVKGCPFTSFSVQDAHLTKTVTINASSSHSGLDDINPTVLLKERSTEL
Procedure: (§1) The exemplary conjugates shown in FIGS. 5 A-E, to which reference is now made, were tested for inhibition of COX-1 and COX-2 to in-vitro activity The ability of the test compounds listed in the Table 1 to inhibit ovine COX-1 and COX-2 (IC50 values, […]) was determined using an enzyme immuno assay (EIA) kit catalog number 560101, Cayman Chemical, Ann Arbor, Mich., USA) according to the manufacturers instructions.
(§2) Cyclooxygenase catalyzes the first step in the biosynthesis of arachidonic acid (AA) to PGH2. PGF2α, produced from PGH2 by reduction with stannous chloride, is measured by enzyme immunoassay (ACETM competitive EIA).
(§3) Stock solutions of test compounds were dissolved in a minimum volume of DMSO. Briefly, to a series of supplied reaction buffer solutions (960 μL, 0.1M Tris-HCl pH 8.0 containing 5 mM EDTA and 2 mM phenol) with either COX-1 or COX-2 (10 μL) enzyme in the presence of heme (10 μL) were added 10 μL of various concentrations of test drug solutions (0.01, 0.1, 1, 10, 50, and 100 μM in a final volume of 1 mL). These solutions were incubated for a period of 5 min at 37° C. after which 10 μL of AA (100 μM) solution were added and the COX reaction was stopped by the addition of 50 μL of 1M HCl after 2 min. PGF2α, produced from PGH2 by reduction with stannous chloride was measured by enzyme immunoassay.
(§4) This assay is based on the competition between PGs and a PG-acetylcholinesterase conjugate (PG tracer) for a limited amount of PG antiserum. The amount of PG tracer that is able to bind to the PG antiserum is inversely proportional to the concentration of PGs in the wells since the concentration of PG tracer is held constant while the concentration of PGs varies. The concentration of the test compound causing 50% inhibition (IC50, μM) was calculated from the concentration-inhibition response curve (duplicate determinations).

[1] = tested on: carrageenin-induced edema of the hind paw; assay: Carrageenin-induced paw edema in rats; conditions: for Swelling volume: rat hind paw; for decrease in the edema size: after 1 h, versus control
Procedure: Sprague dawley rats (150-200 g) were used. Edema was induced by a single sub-plantar injection of carrageenin (1 mg/paw) into the left hind paw of the rat under light ether anesthesia. The total volume injected was always 0.1 ml. […] The results were expressed either as the increase in paw volume (ml) calculated by subtracting the basal volume or by calculating the area under the time-course curve (AUC; ml h) for each group.

ovine COX-1 = molecular target: T2, ovine COX-1 (Ovis aries, UniProt P05979); assay: In vitro COX-1 inhibition, enzyme immuno assay (EIA) kit; assay type: biochemical; conditions: ovine COX-1, EIA, duplicate determinations
T2 construct: purchased Cayman Chemical 560101
T2 sequence (P05979 25-600): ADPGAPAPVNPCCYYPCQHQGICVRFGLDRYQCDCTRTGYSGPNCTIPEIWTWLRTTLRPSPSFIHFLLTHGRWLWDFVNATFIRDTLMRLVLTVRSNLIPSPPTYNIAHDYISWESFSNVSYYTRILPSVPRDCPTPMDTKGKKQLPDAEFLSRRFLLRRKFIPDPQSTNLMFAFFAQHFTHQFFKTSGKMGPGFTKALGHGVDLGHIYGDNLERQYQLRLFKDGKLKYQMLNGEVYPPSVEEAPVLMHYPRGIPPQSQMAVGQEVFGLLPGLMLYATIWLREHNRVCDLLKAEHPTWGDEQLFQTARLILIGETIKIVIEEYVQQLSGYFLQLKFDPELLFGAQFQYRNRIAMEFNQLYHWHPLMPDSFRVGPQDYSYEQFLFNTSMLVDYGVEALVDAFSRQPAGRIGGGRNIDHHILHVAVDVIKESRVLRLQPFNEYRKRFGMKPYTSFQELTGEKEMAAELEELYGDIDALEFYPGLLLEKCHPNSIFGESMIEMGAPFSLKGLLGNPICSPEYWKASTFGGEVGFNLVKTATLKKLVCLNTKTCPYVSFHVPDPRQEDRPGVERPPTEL
Procedure: as §1, §2, §3, §4

[2] = tested on: inflammatory bowel disease IBD (ulcerative colitis); assay: Tri-nitrobenzene sulfunic acid induced ulcerative colitis in rats, MPO activity in colon; assay type: in vivo, Sprague dawley rats; conditions: 25 mg/kg rectally, inflamed area of the colon, FIG. 7
Procedure: The exemplary RNX006 compound shown in FIG. 5 F, to which reference is now made, was tested for the effect on the inflammatory bowel disease IBD (ulcerative colitis) in rats as follows. Male Sprague dawley rats were used in this study. Briefly, ulcerative colitis was induced by tri-nitrobenzene sulfunic acid as described in the literature. Rats were divided into 4 groups, (−) sham (healthy, (+) control ulcerative colitis (UC, not treated), UC treated with RNX006 (25 mg/kg), and UC treated with 5-amino salicylic acid (5-ASA 25 mg/kg). RNX006 and 5-ASA were administered rectally during all the period of the experiment. At the end of the experiment animals were sacrificed and the colon was isolated to test the severity of the inflammation. The severity of the inflammation was tested by measurement of the myeloperoxidase activity (MPO activity) in the inflamed area of the colon.

SMILES | IC50 (ovine COX-2) | Ration (COX ½) (ovine COX-2) | Swelling volume ([1]; 1 hr after carrageenin) | Swelling volume ([1]; 2 hr after carrageenin) | Swelling volume ([1]; 3 hr after carrageenin) | Swelling volume ([1]; 4 hr after carrageenin) | decrease in the edema size [1] | IC50 (ovine COX-1) | MPO activity relatively to IBD rats treated with 5-ASA [2] | MPO activity relatively to the (+) control of non-treated IBD rats [2]
CCCCCCCC/C=C/CCCCCCCC(=O)N1CC(O)CC1C(=O)O (stereo not drawn) [RNX001] | 1.3 µM | 55.7 | 1.1 ± 0.09 mL | 1.3 ± 0.13 mL | 1.9 ± 0.1 mL | 1.8 ± 0.13 mL | 31% | 72.5 µM |  | 
CCCCC/C=C/C/C=C/CCCCCCCC(=O)N1CC(O)CC1C(=O)O (stereo not drawn) [RNX002] | 0.51 µM | 103.3 | 0.9 ± 0.06 mL | 1.6 ± 0.09 mL | 2.3 ± 0.11 mL | 2.1 ± 0.13 mL | 43.4% | 52.7 µM |  | 
CC/C=C\C/C=C/C/C=C/C/C=C/C/C=C/CCCC(=O)N1CC(O)CC1C(=O)O (stereo not drawn) [RNX004] | 0.085 µM | 464.11 |  |  |  |  |  | 39.5 µM |  | 
CC/C=C\C/C=C/C/C=C/C/C=C/C/C=C/C/C=C/CCC(=O)N1CC(O)CC1C(=O)O (stereo not drawn) [RNX005] | 0.081 µM | 528.68 |  |  |  |  |  | 42.8 µM |  | 
CCCCC/C=C/C/C=C/C/C=C/CCCCC(=O)NCCS(=O)(=O)O [RNX006] |  |  |  |  |  |  |  |  | even a lower MPO activity | significantly lower MPO activity
